The text below walks through data of patent US20050032873A1, “3-Amino chroman and 2-amino tetralin derivatives” (Wyeth, priority 2003, published 2005).

The target in assay [1] is T1, 5-HT1A receptor (Homo sapiens, UniProt P08908).
T1 sequence (P08908 1-422): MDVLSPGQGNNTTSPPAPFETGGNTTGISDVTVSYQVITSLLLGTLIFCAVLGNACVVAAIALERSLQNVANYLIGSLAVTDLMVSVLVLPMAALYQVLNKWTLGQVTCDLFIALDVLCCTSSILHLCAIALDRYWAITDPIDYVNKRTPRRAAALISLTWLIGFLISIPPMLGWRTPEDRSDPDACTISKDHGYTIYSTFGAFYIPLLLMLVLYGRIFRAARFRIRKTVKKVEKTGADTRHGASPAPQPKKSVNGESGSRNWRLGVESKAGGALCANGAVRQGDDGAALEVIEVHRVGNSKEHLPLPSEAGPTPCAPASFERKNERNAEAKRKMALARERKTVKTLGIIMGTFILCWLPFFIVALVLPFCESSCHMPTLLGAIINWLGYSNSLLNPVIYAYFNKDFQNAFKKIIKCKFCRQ
Nature of the assay: 5-HT1A receptor affinity: displacement of [3H] 8-OH-DPAT. Format: binding. More on the design: expressed in transfected cells. Conditions: for inhibition at 1 µM: read-out: 5-HT1A Receptor Affinity, % @ 1 μM; for Ki: displacement of [3H] 8-OH-DPAT, CHO cells stably transfected with human 5-HT1A receptors, read-out: 5-HT1A Receptor Affinity Ki. For orientation: In a radioligand displacement assay an active substance lowers the binding of a labelled ligand.

Another assay addresses T2, serotonin transporter (Rattus norvegicus, UniProt P31652).
T2 construct: displace ^3H-paroxetine from male rat cortical membranes; from tissue; host or cells: male rat cortical membranes
Nature of the assay: 5-HT transporter affinity: displacement of 3H-paroxetine from male rat cortical membranes. Format: binding. Conditions: displacement of 3H-paroxetine; male rat cortical membranes; read-out: 5-HT Transporter Affinity Ki.

Assay [2] deals with T3, cloned human 5-HT1A receptors (Homo sapiens, UniProt P08908).
T3 construct: expressed in transfected cells
T3 sequence (P08908 1-422): T1 sequence (P08908 1-422)
Nature of the assay: 35S-GTPγS binding assay, 5-HT1A function. Format: biochemical. Particulars: for IC50: antagonist potency, reversal of 8-OH-DPAT, read-out: 5-HT1A Function GTPγS IC50.

Assay [3] addresses T1, 5-HT1A receptor. Kind of assay: cAMP accumulation assay, 5-HT1A function. The assay is classed as cell-based. Conditions: for 5-HT1A Function cAMP (Emax) / Emax: in brackets after EC50 or IC50; for EC50: cells marked EC50 (agonist); for Emax: read-out: 5-HT1A Function cAMP (Emax).
The mark [4] stands for this setting: maximum inhibitory effect, in brackets after IC50, read-out: 5-HT1A Function GTPγS (Imax).
Setting [5] is: maximum inhibitory effect, in brackets after IC50.
[6] abbreviates: maximum stimulatory effect, in brackets after EC50, read-out: 5-HT1A Function GTPγS (Emax).

Read-outs that look alike come from different tables or passages of the source.

T2 sequence (P31652 whole entry): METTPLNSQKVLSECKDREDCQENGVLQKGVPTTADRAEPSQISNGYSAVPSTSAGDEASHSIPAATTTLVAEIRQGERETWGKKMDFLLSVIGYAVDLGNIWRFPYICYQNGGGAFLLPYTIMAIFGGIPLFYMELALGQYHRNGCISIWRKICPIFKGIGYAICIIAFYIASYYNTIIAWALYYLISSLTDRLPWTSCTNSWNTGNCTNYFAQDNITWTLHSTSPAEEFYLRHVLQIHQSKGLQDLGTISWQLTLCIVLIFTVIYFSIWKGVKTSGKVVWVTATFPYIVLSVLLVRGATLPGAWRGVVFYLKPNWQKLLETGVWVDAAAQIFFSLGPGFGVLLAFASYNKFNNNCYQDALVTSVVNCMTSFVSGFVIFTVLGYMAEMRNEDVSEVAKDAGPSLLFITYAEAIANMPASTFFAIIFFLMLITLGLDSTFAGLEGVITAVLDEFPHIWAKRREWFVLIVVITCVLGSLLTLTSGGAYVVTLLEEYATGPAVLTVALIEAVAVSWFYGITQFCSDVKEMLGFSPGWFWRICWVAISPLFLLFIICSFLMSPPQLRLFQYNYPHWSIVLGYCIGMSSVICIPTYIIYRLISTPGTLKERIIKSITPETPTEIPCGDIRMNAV

Broadly, the Ki is a measure of affinity in units of concentration, obtained from inhibition or displacement. Turning to `NC(=O)c1ccc(F)c2c1OCC(N(CCCc1c[nH]c3ccc(F)cc13)C1CCC1)C2` (stereo not drawn) [Compound 122, 3-{cyclobutyl[3-(5-fluoro-1H-indol-3-yl)propyl]amino}-5-fluorochromane-8-carboxamide], at 5-HT1A receptor [1], the inhibition at 1 µM turned out to be 0%. At serotonin transporter, the Ki is 71 nM.

As usually defined, the IC50 is the concentration that gives 50% inhibition. Take `NC(=O)c1ccc(F)c2c1CC(N(CCCCn1ccc3cccc(F)c31)C1CCC1)CO2` (stereo not drawn) [Compound 192, 3-{Cyclobutyl[4-(7-fluoro-1H-indol-1-yl)butyl]amino}-8-fluorochromane-5-carboxamide]: the Ki on 5-HT1A receptor [1] turned out to be 39.9 nM; at serotonin transporter, 39.3 nM. Moreover, in assay [2], the IC50 turned out to be 1750 nM. For the same compound, in assay [2] (setting [4]), the Emax is 86%.

As to `NC(=O)c1ccc(F)c2c1CC(NCCCc1c[nH]c3ccc(F)cc13)CO2` (single isomer, unassigned; (-)) [Compound 1b, (−)-8-fluoro-3-{[3-(5-fluoro-1H-indol-3-yl)propyl]amino}chromane-5-carboxamide], the inhibition at 1 µM on 5-HT1A receptor [1] came out at 47%. Besides, on serotonin transporter, the Ki turned out to be 76 nM.

On to `CCCN(C(C)CCc1c[nH]c2ccc(C#N)cc12)C1COc2c(F)ccc(C(N)=O)c2C1` (single isomer, unassigned) [Compound 13d, 3-[[3-(5-cyano-1H-indol-3-yl)-1-methylpropyl](propyl)amino]-8-fluoro-3,4-dihydro-2H-chromene-5-carboxamide], for which the Ki on serotonin transporter is 112 nM.

On to `CCCN(C(C)CCc1c[nH]c2ccc(F)cc12)C1COc2c(F)ccc(C(N)=O)c2C1` (single isomer, unassigned) [Compound 12d, 8-fluoro-3-[[3-(5-fluoro-1H-indol-3-yl)-1-methylpropyl](propyl)amino]-3,4-dihydro-2H-chromene-5-carboxamide], for which the IC50 in assay [2] worked out at 6000 nM. In assay [2] (setting [5]), this compound had a 5-HT1A Function GTPγS (Imax) of 13%. For the same compound, the Ki on serotonin transporter is 152 nM.

As for `CNC(=O)c1ccc(F)c2c1CC(NCCc1c[nH]c3ccc(F)cc13)CO2` (stereo not drawn) [Compound 84, 8-fluoro-3-{[2-(5-fluoro-1H-indol-3-yl)ethyl]amino}-N-methylchromane-5-carboxamide], the inhibition at 1 µM on 5-HT1A receptor [1] was determined as 0%. In addition, the inhibition constant (Ki) on serotonin transporter turned out to be 83 nM.

At 5-HT1A receptor [3], `NC(=O)c1ccc(F)c2c1CC(N(CCCc1c[nH]c3ccc(F)cc13)CC1CC1)CO2` (single isomer, unassigned; (+)) [Compound 5b, (+)-3-{(cyclopropylmethyl)[3-(5-fluoro-1H-indol-3-yl)propyl]amino}-8-fluorochromane-5-carboxamide] had a 5-HT1A Function cAMP (Emax) of 69%. Also, the 5-HT1A Function GTPγS (Imax) in assay [2] (setting [5]) was found to be 82%. For the same compound, the Emax in assay [2] (setting [6]) came to 18%. Further, the Ki on serotonin transporter worked out at 3.7 nM.

On to `O=C(NCc1ccccc1)c1ccc(F)c2c1CC(N(CCCc1c[nH]c3ccc(F)cc13)C1CCC1)CO2` (stereo not drawn) [Compound 69, N-benzyl-3-{cyclobutyl[3-(5-fluoro-1H-indol-3-yl)propyl]amino}-8-fluorochromane-5-carboxamide], for which the inhibition at 1 µM on 5-HT1A receptor [1] came out at 3%. For the same compound, the Ki at serotonin transporter is 15.1 nM.

With `NC(=O)c1ccc(F)c2c1CC(N(CCCCn1ccc3c(F)cccc31)C1CCC1)CO2` (stereo not drawn) [Compound 204, 3-{Cyclobutyl[4-(4-fluoro-1H-indol-1-yl)butyl]amino}-8-fluorochromane-5-carboxamide], the Ki on 5-HT1A receptor [1] turned out to be 17.4 nM; on serotonin transporter it was 288 nM.

As for `NC(=O)c1ccc(F)c2c1CC(NCCCc1c[nH]c3c(Cl)cccc13)CO2` (stereo not drawn) [Compound 109, 3-{[3-(7-chloro-1H-indol-3-yl)propyl]amino}-8-fluorochromane-5-carboxamide], the inhibition constant Ki on 5-HT1A receptor [1] amounted to 27.7 nM; on serotonin transporter, 69 nM.

`COC(=O)c1ccc(F)c2c1CC(NCCCc1c[nH]c3ccc(F)cc13)CO2` (stereo not drawn) [Compound 54, Methyl 8-fluoro-3-{[3-(5-fluoro-1H-indol-3-yl)propyl]amino}chromane-5-carboxylate] yielded a 5-HT1A Function GTPγS (Emax) in assay [2] (maximum stimulatory effect, in brackets after EC50) of 85%.

Regarding `CC(CCc1c[nH]c2c(F)cc(F)cc12)N(CC1CC1)C1COc2c(F)ccc(C(N)=O)c2C1` (single isomer, unassigned) [Compound 154b, 3-{(cyclopropylmethyl)[3-(5,7-difluoro-1H-indol-3-yl)-1-methylpropyl]amino}-8-fluorochromane-5-carboxamide], the inhibition constant Ki at 5-HT1A receptor [1] amounted to 88.2 nM; on serotonin transporter, 217 nM.

Regarding `NC(=O)c1ccc(F)c2c1CC(NCCCn1ccc3ccccc31)CO2` (stereo not drawn) [Compound 184, 8-Fluoro-3-{[3-(1H-indol-1-yl)propyl]amino}chromane-5-carboxamide], on 5-HT1A receptor [1], the inhibition at 1 µM amounted to 46%. Moreover, the Ki on serotonin transporter was determined as 611 nM.

Take `NC(=O)c1ccc(F)c2c1CC(N(CCCc1c[nH]c3ccc(F)cc13)CC1CC1)CO2` (single isomer, unassigned; (-)) [Compound 5a, (−)-3-{(cyclopropylmethyl)[3-(5-fluoro-1H-indol-3-yl)propyl]amino}-8-fluorochromane-5-carboxamide]: at 5-HT1A receptor [3], the 5-HT1A Function cAMP (Emax) was 0%. In addition, the Emax in assay [2] (setting [4]) amounted to 100%. In addition, the Ki on serotonin transporter was 4.1 nM.

Usually EC50 stands for the concentration at which the effect is half-maximal. Higher therefore signals a need for much substance. For `CCCN(CCCCn1ccc2cccc(F)c21)C1COc2c(F)ccc(C(N)=O)c2C1` (stereo not drawn) [Compound 190, 8-Fluoro-3-[[4-(7-fluoro-1H-indol-1-yl)butyl](propyl)amino]chromane-5-carboxamide], at 5-HT1A receptor [1], the Ki was 16.6 nM. Also, at 5-HT1A receptor [3], the half-maximal effective concentration (EC50) came to 321 nM and the Emax was 59%. The IC50 in assay [2] came out at 3600 nM. Further, in assay [2] (setting [4]), the Emax was determined as 84%.

On to `COc1cccc2c1CC(N(CCCCc1c[nH]c3ccc(F)cc13)C1CCC1)CO2` (stereo not drawn) [Compound 36, N-cyclobutyl-N-[4-(5-fluoro-1H-indol-3-yl)butyl]-N-(5-methoxy-3,4-dihydro-2H-chromen-3-yl)amine], for which the Ki at 5-HT1A receptor [1] worked out at 11.7 nM. Also, at 5-HT1A receptor [3], a half-maximal response (EC50) required 12.3 nM and the Emax is 61%. Further, the IC50 in assay [2] was 668 nM. Also, the Emax in assay [2] (setting [4]) worked out at 56%.

For the compound `NC(=O)c1ccc(F)c2c1CC(N(CCCc1c[nH]c3ccc(F)cc13)Cc1ccccc1)CO2` (stereo not drawn) [Compound 74, 3-{benzyl[3-(5-fluoro-1H-indol-3-yl)propyl]amino}-8-fluorochromane-5-carboxamide], the inhibition at 1 µM at 5-HT1A receptor [1] was 20%. Also, the inhibition constant (Ki) on serotonin transporter amounted to 641 nM.

Consider `NC(=O)c1ccc(F)c2c1CC(N(CCCc1c[nH]c3ccc(F)cc13)C1CCC1)CO2` (single isomer, unassigned; (+)) [Compound 4a, (+)-3-{cyclobutyl[3-(5-fluoro-1H-indol-3-yl)propyl]amino}-8-fluorochromane-5-carboxamide], for which the Emax on 5-HT1A receptor [3] was found to be 0%. Besides, the inhibitory constant (Ki) on serotonin transporter is 4.93 nM.

`NC(=O)c1ccc(F)c2c1CC(N(CCCc1c[nH]c3ccc(F)cc13)C1CCC1)CO2` (single isomer, unassigned; (-)) [Compound 4b, (−)-3-{cyclobutyl[3-(5-fluoro-1H-indol-3-yl)propyl]amino}-8-fluorochromane-5-carboxamide]: the 5-HT1A Function cAMP (Emax) on 5-HT1A receptor [3] stood at 0%. Moreover, the Ki at serotonin transporter was 1.53 nM.

With `NC(=O)c1ccc(F)c2c1OCC(N(CCCCc1c[nH]c3ccc(F)cc13)C1CCC1)C2` (stereo not drawn) [Compound 126, 3-{cyclobutyl[4-(5-fluoro-1H-indol-3-yl)butyl]amino}-5-fluorochromane-8-carboxamide], the inhibition at 1 µM at 5-HT1A receptor [1] worked out at 0%. Further, the inhibition constant (Ki) at serotonin transporter stood at 17.1 nM.

As to `NC(=O)c1ccc(F)c2c1OCC(N(CCCc1c[nH]c3c(F)cc(F)cc13)C1CCC1)C2` (stereo not drawn) [Compound 131, 3-{cyclobutyl[3-(5,7-difluoro-1H-indol-3-yl)propyl]amino}-5-fluorochromane-8-carboxamide], at 5-HT1A receptor [1], the inhibition at 1 µM was 49%. Further, the Ki on serotonin transporter turned out to be 162 nM.

Regarding `NC(=O)c1ccc(F)c2c1CC(N(CCCc1c[nH]c3ccc(F)cc13)C1CCC1)CO2` (stereo not drawn) [Compound 4, 3-{cyclobutyl[3-(5-fluoro-1H-indol-3-yl)propyl]amino}-8-fluorochromane-5-carboxamide], the Emax on 5-HT1A receptor [3] is 0%. Also, at serotonin transporter, the Ki came out at 2.6 nM.

`NC(=O)c1ccc(F)c2c1CC(N(CCCc1c[nH]c3ccc(F)cc13)CC1CC1)CO2` (stereo not drawn) [Compound 5, 3-{(cyclopropylmethyl)[3-(5-fluoro-1H-indol-3-yl)propyl]amino}-8-fluorochromane-5-carboxamide]: the Emax came to 0% at 5-HT1A receptor [3], 88.2% in assay [2] (setting [4]) and 28.4% in assay [2] (setting [6]). The Ki on serotonin transporter worked out at 3.6 nM.

In the case of `COc1ccc2[nH]cc(CCCNC3COc4c(F)ccc(C(N)=O)c4C3)c2c1` (stereo not drawn) [Compound 104, 8-fluoro-3-{[3-(5-methoxy-1H-indol-3-yl)propyl]amino}chromane-5-carboxamide], the values for the Ki on 5-HT1A receptor [1] and on serotonin transporter were 16.7 nM and 4050 nM, respectively.
